Data as given in US4999372A, “New aminochromanol compounds” (ADIR et Compagnie, priority 1988, dated 1991).
Read-outs that look alike come from different tables or passages of the source.

Columns and labels:
aorta of the rat [1] = assay: Relaxation of rat aortic rings contracted by potassium depolarisation (KCl); type: cell-based; conditions: rat aorta rings without endothelium
Experimental: (§1) Male Wistar rats (325-375 g) are anaesthetised i.p. using sodium pentobarbital (30 mg/kg). The thoracic aorta and the mesenteric portal vein are removed. The aorta is dissected into rings 3 mm long and the endothelium is removed mechanically.
(§2) The organs are placed in a 20 ml thermostatically controlled vessel containing a physiological solution composed of (mM): NaCl 112; KCl 5; KH2 PO4 1; MgSO4 1.2; CaCl2 2.5; NaHCO3 25; glucose 11.5; EDTA 0.1; pH: 7.4; 37° C.; 95% O2 +5% CO2.
(§3) The initial force applied is 2 g in the case of the aorta and 0.5 g in the case of the portal vein. The variations in force are measured by a STATHAM sensor connected to a transducer amplifier (GOULD) and are monitored continuously on a GOULD 2400 graphic recorder.
(§4) The experimental protocols are as follows: After a stabilisation period of 90 minutes, the aortic rings are subjected to various tests:
potassium depolarisation:
The preparations are exposed to a 30 mM or 80 mM KCl (and 87 and 37 mM NaCl, respectively) hyperpotassium medium; after 30 minutes' stabilisation of contraction, cumulative concentrations of the product to be tested are added every 15 minutes. The relaxation values obtained allow the IC50 s to be calculated.
(§5) The products are used in a form dissolved in water or a suitable solvent.
(§6) The concentrations expressed refer to the final concentrations in terms of base in the isolated organ baths.

anaesthetised dog = assay: Haemodynamic study in the anaesthetised dog (vascular resistances), i.v.; type: in vivo; conditions: 10 μg/kg
Experimental: A complete haemodynamic study was carried out on mongrel dogs weighing from 25 to 30 kg, which were anaesthetised with sodium pentobarbital 30 mg/kg i.v., intubated and ventilated and subjected to a thoracotomy at the 5th left intercostal space. The measurement of the […] is carried out using electromagnetic rings positioned at the level of the ascending aorta and the circumflex branch of the left coronary artery, respectively, and connected to GOULD SP 2202 electromagnetic flow meters. The aortic pressure is measured by a MILLAR probe introduced via the femoral artery.
The total peripheral vascular resistance values (TPR) and the mean coronary vascular resistance values (CVRM) are calculated by the ratio between the mean aortic pressure and the mean cardiac output and the mean coronary output, respectively. The products tested were injected via the femoral vein in a form dissolved in water or a suitable solvent.
The evolution of the vascular resistances, expressed as percentage variation with respect to the control values, is presented as a function of time in the following Table.

[2] = test system: conscious renally hypertensive dog; assay: Arterial pressure in the conscious renally hypertensive dog; type: in vivo; conditions: gastric intubation, 0.1 mg/kg
Experimental: Mongrel dogs weighing from 20 to 25 kg are used. A silastic catheter positioned under anaesthesia (sodium pentobarbital 30 mg/kg i.v.) at the level of the abdominal aorta and left over a prolonged period permits the later measurement of the arterial pressure in the conscious animals. Arterial hypertension is induced by a second intervention under anaesthesia consisting in a constriction of the left renal artery using a clip, which reduces its rate of flow by approximately 70%, the left kidney is enveloped in a latex capsule and the contralateral kidney is left in place.
The systolic and diastolic arterial pressures (PAS and PAD) are measured using a STATHAM P23 pressure sensor connected to the silastic catheter and linked to a GOULD pressure amplifier. The products are tested on the animals, which have become hypertensive, in the conscious state, at least one week after the second intervention. The arterial pressure is monitored continuously on an ES1000 GOULD recorder until 7 hours have elapsed after the treatment and then until 24 hours have elapsed.
The products to be tested are administered via the digestive system, after gastric intubation, in a form dissolved in water or a suitable solvent. The doses administered are expressed in mg of base with respect to body weight.
The representative products of the invention were compared with the reference product (CROMAKALIM). The variations in the systolic and diastolic arterial pressures (PAS and PAD), presented at the most significant times after treatment, are expressed as percentage variation with respect to the control values.

[3] = test system: spontaneously hypertensive rat (SHR); assay: Arterial pressure in the conscious spontaneously hypertensive rat (SHR), oral; type: in vivo
Experimental: The study is carried out on SHR male rats (Charles River) weighing from 260 g to 330 g and aged from 18 to 20 weeks. A polyethylene catheter is positioned at the level of the abdominal aorta and tunnelised at the level of the neck under anaesthesia (ketamine hydrochloride 150 mg/kg intraperitoneally). The animals, placed in movement-restraining cages, are tested in the conscious state at least 48 hours after intervention. The arterial pressure, measured by a STATHAM P23 pressure sensor connected to the abdominal catheter, is registered on a GOULD 2400 recorder. […] The doses administered are expressed in mg/kg of base.
The results obtained with a certain number of representative products of the invention and a reference product, CROMAKALIM, are grouped in the following Table. The variations in systolic and diastolic arterial pressure (PAS and PAD) presented at the most significant times after treatment are expressed as percentage variation with respect to the control values.

aorta of the rat [4] = assay: Reactivity of rat aortic rings to 4-aminopyridine (4 AP); type: cell-based; conditions: 4 AP 5 mM
Experimental: as §1, §2, §3, §4
reactivity to 4-aminopyridine (4 AP)
The product to be tested, at a given concentration, or its solvent, is incubated in the normal physiological solution 15 minutes before the addition of the 4 AP (5 mM).
The maximum amplitudes of the responses to the 4 AP in the presence of the product or the solvent are compared.
as §5, §6

guinea pig = assay: Bronchospasm produced by a histamine aerosol at 4%, compound i.v.; type: in vivo
Experimental: The bronchodilating activity has been studied in the guinea pig by the method of H. KONZETT and R. ROSSLER, Arch. Exp. Path. U. Pharm. 195, 71 (1940).
For example, the bronchospasm produced in the guinea pig by a histamine aerosol et 4% is inhibited of 96% by the compound of Example 1 B form, at the dose of 0.30 mg/kg i.v., and of 100% by the compound of Example 24 B form, at the dose of 0.35 mg/kg i.v.

Row | SMILES | Variation (%) of CVRM after treatment (anaesthetised dog; 1 min) [%] | Variation (%) of TPR after treatment (anaesthetised dog; 1 min) [%] | Variation (%) of CVRM after treatment (anaesthetised dog; 10 min) [%] | Variation (%) of TPR after treatment (anaesthetised dog; 10 min) [%] | Variation (%) of CVRM after treatment (anaesthetised dog; 30 min) [%] | Variation (%) of TPR after treatment (anaesthetised dog; 30 min) [%] | Variation (%) of PAD after treatment ([2]; 1 H) | Variation (%) of PAS after treatment ([2]; 1 H) | Variation (%) of PAD after treatment ([2]; 3 H) [%] | Variation (%) of PAS after treatment ([2]; 3 H) [%] | Variation (%) of PAD after treatment ([2]; 7 H) [%] | Variation (%) of PAS after treatment ([2]; 7 H) | Variation (%) of PAD after treatment ([2]; 24 H) | Variation (%) of PAS after treatment ([2]; 24 H) | Variation (%) of PAD after treatment ([2]; 30 min) [%] | Variation (%) of PAS after treatment ([2]; 30 min) [%] | Variation (%) of PAD after treatment ([3]; 0.3 mg/kg, 1 H) [%] | Variation (%) of PAS after treatment ([3]; 0.3 mg/kg, 1 H) [%] | Variation (%) of PAD after treatment ([3]; 0.3 mg/kg, 3 H) [%] | Variation (%) of PAS after treatment ([3]; 0.3 mg/kg, 3 H) [%] | other results
1 | CC1(C)Oc2ccc(C#N)cc2[C@@H](N2CCCC2=O)[C@@H]1O (relative stereo) [CROMAKALIM, reference compound] | -69.0 | -26.8 | -38.1 | -15.5 | -27.4 | -7.8 | -23% | -26% | -9 | -9 | -5 | +2% | +18% | +9% | -46 | -50 | -26 ± 3 | -21 ± 3 | -7 ± 5 | -5 ± 4 | IC50 (aorta of the rat [1]; Rattus norvegicus, 30 mM KCl, read-out: IC50 (M) KCl 30 mM): 4.2e-07 M; IC50 (aorta of the rat [1]; Rattus norvegicus, 80 mM KCl, read-out: IC50 (M) KCl 80 mM): > 0.0001 M; Variation (%) of PAD after treatment ([3]; 0.3 mg/kg, 6 H): -3 ± 1%; Variation (%) of PAS after treatment ([3]; 0.3 mg/kg, 6 H): -1 ± 2%; Variation (%) of PAD after treatment ([3]; 0.3 mg/kg, 30 min): -34 ± 2%; Variation (%) of PAS after treatment ([3]; 0.3 mg/kg, 30 min): -29 ± 2%; Variation (%) of PAD after treatment ([3]; 1.0 mg/kg, 1 H): -33 ± 3%; Variation (%) of PAS after treatment ([3]; 1.0 mg/kg, 1 H): -23 ± 4%; Variation (%) of PAD after treatment ([3]; 1.0 mg/kg, 3 H): -25 ± 4%; Variation (%) of PAS after treatment ([3]; 1.0 mg/kg, 3 H): -19 ± 3%; Variation (%) of PAD after treatment ([3]; 1.0 mg/kg, 6 H): -20 ± 2%; Variation (%) of PAS after treatment ([3]; 1.0 mg/kg, 6 H): -15 ± 2%; Variation (%) of PAD after treatment ([3]; 1.0 mg/kg, 30 min): -44 ± 4%; Variation (%) of PAS after treatment ([3]; 1.0 mg/kg, 30 min): -34 ± 5%; % inhibition of the response to 4AP (aorta of the rat [4]; product 10^-5 M): 74%; % inhibition of the response to 4AP (aorta of the rat [4]; product 10^-7 M): 13%
2 | CC1(C)Oc2ccc(C#N)cc2C(N2C(=O)CC[C@H]2CO)C1O (single isomer, unassigned) [Example 1 form B, 3R,4S- or 3S,4R-trans-2,2-dimethyl-3-hydroxy-4-(2-oxo-5S-hydroxymethyl-1-pyrrolidinyl)-6-cyanochroman] | -69.4 | -45.9 | -62.0 | -35.1 | -43.7 | -35.1 | +5% | +2% | -50 | -55 | -68 | -76% | -27% | -24% | 0 | 0 | -36 ± 4 | -27 ± 4 | -35 ± 4 | -25 ± 3 | Inhibition of the bronchospasm produced by a histamine aerosol at 4% (guinea pig; 0.30 mg/kg i.v.): 96%; IC50 (aorta of the rat [1]; 30 mM KCl, listed as Ex. 1 Form B, read-out: IC50 (M) KCl 30 mM): 3.4e-07 M; IC50 (aorta of the rat [1]; 80 mM KCl, read-out: IC50 (M) KCl 80 mM): > 0.0001 M; Variation (%) of PAD after treatment ([3]; 0.3 mg/kg, 6 H): -40 ± 4%; Variation (%) of PAD after treatment ([3]; 0.3 mg/kg, 30 min): -34 ± 6%; Variation (%) of PAS after treatment ([3]; 0.3 mg/kg, 30 min): -27 ± 5%; Variation (%) of PAD after treatment ([3]; 1.0 mg/kg, 1 H): -54 ± 2%; Variation (%) of PAS after treatment ([3]; 1.0 mg/kg, 1 H): -44 ± 1%; Variation (%) of PAD after treatment ([3]; 1.0 mg/kg, 3 H): -46 ± 6%; Variation (%) of PAS after treatment ([3]; 1.0 mg/kg, 3 H): -40 ± 2%; Variation (%) of PAD after treatment ([3]; 1.0 mg/kg, 6 H): -46 ± 4%; Variation (%) of PAS after treatment ([3]; 1.0 mg/kg, 6 H): -36 ± 3%; Variation (%) of PAD after treatment ([3]; 1.0 mg/kg, 30 min): -48 ± 5%; Variation (%) of PAS after treatment ([3]; 1.0 mg/kg, 30 min): -42 ± 2%; % inhibition of the response to 4AP (aorta of the rat [4]; product 3 × 10^-6 M): 18%; % inhibition of the response to 4AP (aorta of the rat [4]; product 10^-5 M, listed as Ex. 1 Form B): 77%
3 | COC(=O)c1ccc2c(c1)C(N1C(=O)CCC1CO)C(O)C(C)(C)O2 (single isomer, unassigned) [Example 24 B form] | – | – | – | – | – | – | – | – | – | – | – | – | – | – | – | – | – | – | – | – | Inhibition of the bronchospasm produced by a histamine aerosol at 4% (guinea pig; 0.35 mg/kg i.v.): 100%
